Results: article PMC3205185, “Identification of a Eukaryotic Reductive Dechlorinase and Characterization of Its Mechanism of Action on Its Natural Substrate” (Chemistry & Biology, 2011)
Residue numbers refer to the chain shown, from its start.

Experiments:
[1] = target: T1, DrcA (DIF-1 dechlorinase) (Dictyostelium discoideum, UniProt Q54B85); experiment: DIF-1 dechlorination assay with TLC, purified protein; further dechlorinated at higher enzyme or longer incubation; format: biochemical
T1 construct: gene DDB_G0293840
T1 sequence (Q54B85 1-275): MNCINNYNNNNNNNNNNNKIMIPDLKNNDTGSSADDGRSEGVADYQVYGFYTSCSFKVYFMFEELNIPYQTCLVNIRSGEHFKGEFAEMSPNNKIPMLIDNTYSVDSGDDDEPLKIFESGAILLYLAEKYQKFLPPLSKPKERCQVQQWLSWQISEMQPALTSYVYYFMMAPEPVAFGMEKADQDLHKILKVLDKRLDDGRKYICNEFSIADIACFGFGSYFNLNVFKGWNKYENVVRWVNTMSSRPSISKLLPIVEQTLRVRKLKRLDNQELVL

DrcA (ΔNC16NDrcA) [2] = target: T2, DrcA (ΔNC16NDrcA) (Dictyostelium discoideum, UniProt Q54B85, C54N); experiment: dechlorination assay with purified mutant, TLC and Orbitrap MS of the conjugates; format: biochemical
T2 construct: gene DDB_G0293840; ΔNDrcA, lacking the first 38 residues
T2 sequence (Q54B85 39-275 C54N): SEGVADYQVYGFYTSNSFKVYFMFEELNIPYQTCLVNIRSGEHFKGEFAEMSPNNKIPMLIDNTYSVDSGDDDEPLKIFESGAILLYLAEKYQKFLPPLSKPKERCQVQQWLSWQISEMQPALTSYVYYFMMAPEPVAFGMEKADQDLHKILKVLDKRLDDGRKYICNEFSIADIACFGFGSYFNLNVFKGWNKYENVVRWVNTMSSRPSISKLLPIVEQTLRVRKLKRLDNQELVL

DrcA (ΔNC16NDrcA) [3] = target: T2, DrcA (ΔNC16NDrcA); experiment: TLC time course and Orbitrap MS of products of the purified mutant; further converted to GS-DIF-GS; format: biochemical
[4] = substrate: CCCCCC(=O)c1c(O)c(Cl)c(OC)c(Cl)c1O; experiment: radioactive [3H]DIF-1 dechlorination assay with TLC, Michaelis-Menten kinetics, purified enzyme (Km); format: biochemical, Dictyostelium discoideum; settings: glutathione glutathione attacks the carbon-chlorine bond to give a GS-DIF conjugate, which is resolved by Cys54

Molecule: CCCCCC(=O)c1c(O)cc(OC)c(Cl)c1O [DIF-3]
- DIF-1 dechlorination assay with TLC, purified protein; further dechlorinated at [1]: only appears after all DIF-1 has been converted into the monochlorinated form, suggesting a lower affinity

Molecule: CCCCCC(=O)c1c(O)c(Cl)c(OC)c(Cl)c1O [DIF-1]
- dechlorination assay with purified mutant, TLC and Orbitrap MS of the conjugates (DrcA (ΔNC16NDrcA) [2]): although DIF-1 was consumed in the assay, DIF-3 was not produced

Molecule: CCCCCC(=O)c1c(O)c(Cl)c(OC)c(SC[C@H](NC(=O)CC[C@H](N)C(=O)O)C(=O)NCC(=O)O)c1O [GS-DIF]
- TLC time course and Orbitrap MS of products of the purified mutant; further conv (DrcA (ΔNC16NDrcA) [3]): ΔNC16NDrcA must be able to accommodate the conjugate GS-DIF to attack the second carbon-chlorine bond

B1: DrcA (DIF-1 dechlorinase) (Dictyostelium discoideum) (protein)
chain: T2 sequence (Q54B85 39-275 C54N) with N16C
notes: ΔNDrcA, lacking the first 38 residues, C-terminal 6×His tag
- Km [4]: 0.088 ± 0.0175 µM
- kcat [4]: 6.7 s⁻¹
- kcat/Km [4]: 7.6e+07 M⁻¹ s⁻¹
